Data taken from publication PMC9081086, “Stapling strategy enables improvement of antitumor activity and proteolytic stability of host-defense peptide hymenochirin-1B” (RSC Advances, 2018).
Positions of bridges follow the written chain, without caps; N, C: chain ends. Non-standard residues stand in square brackets, D forms with d. Residues, ends and D or L forms follow the SMILES beside them. S5 = C=CCCC[C@](C)(N)C(=O)O

Legend:
[1] = the molecule shown is the open-chain precursor; 33-membered ring; resin; 60 steps
[2] = Circular dichroism, α-helicity; format: physicochemical; conditions: CD, TFE/water (1:1), 50 μM peptide, 25 °C, 1 mm cuvette, calculated from [θ]222
Method: The linear and stapled peptides were dissolved in the trifluoroethanol (TFE) and water (1 : 1) to a final concentration of 50 μM, respectively. The CD spectra were obtained with 1 mm quartz cuvette on Jasco-815 spectropolarimeter at 25 °C. The measurement parameters were set up as follows: wavelength, 185–260 nm; step resolution, 0.5 nm; speed, 20 nm min^−1. All spectra were converted to a uniform scale of molar ellipticity after background subtraction. The curves were smoothed using standard parameters. The ellipticity in the acquired CD spectra was converted to the molar ellipticity using the equation: [θ] = θ/(10 × c × l), where, [θ] is the Molar ellipticity (deg cm^2. d mol^−1), θ is the observed ellipticity corrected for the buffer at a given wavelength (m deg), c is the molar concentration and l is the path length (cm). The helicity of each peptide was calculated as described in a literature based on the ellipticity of the peptide's spectrum at 222 nm and the number of amino acids in the peptide sequence.
Circular dichroism (CD) spectroscopy was used to investigate the secondary structures of the stapled and template peptides to probe structural changes induced by conformation constraint in a membrane-like milieu, including […] (TFE) and water (1 : 1). […] (Table 1, ESI ^†).

[3] = system: human normal liver cell LO-2; assay: MTT toxicity against normal cells, LO-2; format: cell-based; conditions: 96 h
Method: (§1) Anti-tumor activity was evaluated by the standard MTT assay with a slight modification measuring the median inhibitory concentration (IC50) values.[35] HCT-116 cells, HepG2 cells and A549 cells were plated in triplicate wells into a 96-well plate at 5 × 10^3/well and cultured routinely for 24 h. Cells were incubated with increasing concentrations of hymenochirin-1B and its analogs (0.1–30 μM) and continued to culture with DMEM plus 10% FBS at 37 °C and 5% CO2. After being incubated for 96 h, the absorbance A value was determined by MTT at 540 nm. The untreated HCT-116 cells, HepG2 cells and A549 cells were used as control. Each experiment was performed in duplicate. The inhibitory rate was calculated according to the following formula: inhibitory rate = (a value of the control group − a value of the study group)/a value of the control group × 100%.
(§2) To further research the selectivity of these peptides towards cancer cells over normal cells. The growth-inhibitory activities of peptides were evaluated using the 3-(4,5-dimethylthiazol-2-yl)-2,5-diphenyltetrazolium bromide (MTT) assay against three normal cells,[35] namely, human normal liver cell LO-2, human normal Lung cell BEAS-2 and human normal kidney cell 293 T (Table S2 ^†). The experiments procedure was performed just same as growth inhibition of the peptides against tumor cells. […] It might be due to the higher averaged hydrophobicity produced by six or nine additional methylene and two olefinic carbons to the peptide to increase toxicity to human normal cells. This situation may be resolved through the addition of polar character and glycosylation into the sequence to decrease the averaged hydrophobicity to improve the selectivity of these peptides towards cancer cells over normal cells. These modifications of these peptides are under way, and the present study was focused on the improved anti-tumor activity of template peptide hymenochirin-1B.

[4] = system: human normal Lung cell BEAS-2; assay: MTT toxicity against normal cells, BEAS-2B; format: cell-based; conditions: 96 h
Method: as §1, §2

[5] = system: human normal kidney cell 293 T; assay: MTT toxicity against normal cells, 293T; format: cell-based; conditions: 96 h
Method: as §1, §2

[6] = Protease resistance (trypsin degradation, HPLC); format: in vitro ADME; conditions: trypsin solution (5 ng/µL), room temperature, HPLC 214 nm, duplicate; for half-life at 0.1 mM: trypsin 5 ng/μL in 50 mM PBS with 2 mM CaCl2, pH 7.4 (method: trypsin buffer pH 8), peptide 0.1 mM final, sampled 0–3.5 h, HCl quench, read-out: half-life (t1/2) toward trypsin degradation (converted)
Method: The peptides were dissolved in PBS buffer solutions (50 mM, pH = 7.4) to a final concentration of 1 mM, respectively. Trypsin was dissolved in PBS buffer (50 mM, containing 2 mM of CaCl2, pH = 8) to a final concentration of 5 ng μL^−1. Then the peptide solutions (100 μL) were incubated with trypsin solution (1 mL) at room temperature. 100 μL of digestion mixture was taken at the 0, 0.5, 1.0, 1.5, 2.0, 2.5, 3.0, and 3.5 h marks, then quenched with 20 μL of hydrochloric acid (1 M). The solution of the trypsin peptide fragments was monitored by HPLC at different time to determine the fraction of protease degradation at 214 nm. Each experiment was performed in duplicate.
To assess the protease stability of the stapled peptides, we measured their susceptibility toward trypsin degradation at room temperature in PBS buffer (pH 7.4) with monitored by HPLC. Trypsin is a protease that predominantly cleaves at the carboxyl terminus of positive charge amino acids, such as arginine and lysine. […] Especially, only about 49% of bicyclic stapled peptide H-10 was cleaved after 3.5 h (Fig. 3 and S4 ^†).
Fig. 3 Proteolytic stability of peptides incubated in trypsin solution (5 ng μL^−1 in 50 mM PBS buffer, pH = 7.4) at a final concentration of 0.1 mM. […] The percent of residual peptide was monitored by Analytic HPLC. All experiments were repeated at least three times. H-0 represents hymenochirin-1B.

SMILES | Helicity (%) [2] [%] | half-life at 0.1 mM [6] [min] | metabolised at 3.5 h, 0.1 mM ([6]; trypsin 5 ng/μL in 50 mM PBS, pH 7.4, peptide 0.1 mM final, 3.5 h, read-out: peptide cleaved by trypsin after 3.5 h) [%] | ring closure, overall yield [1] [%] | IC50 (μM) LO-2, toxicity against normal cells [3] [µM] | IC50 (μM) BEAS-2B, toxicity against normal cells [4] [µM] | IC50 (μM) 293T, toxicity against normal cells [5] [µM]
C=CCCCCCC[C@@](C)(NC(=O)[C@H](CCCCNC(=O)OC(C)(C)C)NC(=O)[C@H](CC(C)C)NC(=O)[C@@H](NC(=O)[C@H](CCCCNC(=O)OC(C)(C)C)NC(=O)[C@H](CCCCNC(=O)OC(C)(C)C)NC(=O)[C@H](CC(C)C)NC(=O)[C@H](CC(=O)NC(c1ccccc1)(c1ccccc1)c1ccccc1)NC(=O)[C@H](CC(=O)OC(C)(C)C)NC(=O)[C@H](CCCCNC(=O)OC(C)(C)C)NC(=O)[C@@H](NC(=O)[C@H](CCC(=O)OC(C)(C)C)NC(=O)[C@@H]1CCCN1C(=O)[C@H](COC(C)(C)C)NC(=O)[C@H](CC(C)C)NC(=O)[C@H](CCCCNC(=O)OC(C)(C)C)NC(=O)[C@@H](NC(=O)OCC1c2ccccc2-c2ccccc21)[C@@H](C)CC)[C@@H](C)OC(C)(C)C)C(C)C)C(=O)N[C@@H](C)C(=O)N[C@H](C(=O)N[C@@H](CCCCNC(=O)OC(C)(C)C)C(=O)NCC(=O)N[C@@H](C)C(=O)N[C@H](C(=O)N[C@@](C)(CCCC=C)C(=O)N[C@H](C(=O)N[C@@H](C)C(=O)N[C@@H](CCCCNC(=O)OC(C)(C)C)C(=O)N[C@@H](CCSC)C(=O)N[C@H](C(N)=O)C(C)C)C(C)C)[C@@H](C)CC)[C@@H](C)CC |  |  |  | 6.72 |  |  | 
CC[C@H](C)[C@H](N)C(=O)N[C@@H](CCCCN)C(=O)N[C@@H](CC(C)C)C(=O)N[C@@H](CO)C(=O)N1CCC[C@H]1C(=O)N[C@@H](CCC(=O)O)C(=O)N[C@H](C(=O)N[C@@H](CCCCN)C(=O)N[C@@H](CC(=O)O)C(=O)N[C@@H](CC(N)=O)C(=O)N[C@@H](CC(C)C)C(=O)N[C@@H](CCCCN)C(=O)N[C@@H](CCCCN)C(=O)N[C@H](C(=O)N[C@@H](CC(C)C)C(=O)N[C@@H](CCCCN)C(=O)NCC(=O)N[C@@H](C)C(=O)N[C@H](C(=O)N[C@@H](CCCCN)C(=O)NCC(=O)N[C@@H](C)C(=O)N[C@H](C(=O)N[C@@H](C)C(=O)N[C@H](C(=O)N[C@@H](C)C(=O)N[C@@H](CCCCN)C(=O)N[C@@H](CCSC)C(=O)N[C@H](C(N)=O)C(C)C)C(C)C)[C@@H](C)CC)[C@@H](C)CC)C(C)C)[C@@H](C)O [Hymenochirin-1B] (H-IKLSPETKDNLKKVLKGAIKGAIAVAKMV-NH2) | 48.7 | 16.8 |  |  | 23.98 ± 0.32 | 9.24 ± 0.25 | 11.12 ± 0.35

Further lines, with some results ahead:

Helicity (%) [2] [%] | half-life at 0.1 mM [6] [min] | metabolised at 3.5 h, 0.1 mM ([6]; trypsin 5 ng/μL in 50 mM PBS, pH 7.4, peptide 0.1 mM final, 3.5 h, read-out: peptide cleaved by trypsin after 3.5 h) [%] | SMILES | ring closure, overall yield [1] [%] | IC50 (μM) LO-2, toxicity against normal cells [3] [µM] | IC50 (μM) BEAS-2B, toxicity against normal cells [4] [µM] | IC50 (μM) 293T, toxicity against normal cells [5] [µM]
49.3 | 30 |  | CC[C@H](C)[C@H](N)C(=O)N[C@@H](CCCCN)C(=O)N[C@@H](CC(C)C)C(=O)N[C@@H](CO)C(=O)N1CCC[C@H]1C(=O)N[C@@]1(C)CCCC=CCCC[C@@](C)(C(=O)N[C@@H](CC(C)C)C(=O)N[C@@H](CCCCN)C(=O)N[C@@H](CCCCN)C(=O)N[C@H](C(=O)N[C@@H](CC(C)C)C(=O)N[C@@H](CCCCN)C(=O)NCC(=O)N[C@@H](C)C(=O)N[C@H](C(=O)N[C@@H](CCCCN)C(=O)NCC(=O)N[C@@H](C)C(=O)N[C@H](C(=O)N[C@@H](C)C(=O)N[C@H](C(=O)N[C@@H](C)C(=O)N[C@@H](CCCCN)C(=O)N[C@@H](CCSC)C(=O)N[C@H](C(N)=O)C(C)C)C(C)C)[C@@H](C)CC)[C@@H](C)CC)C(C)C)NC(=O)[C@H](CC(=O)O)NC(=O)[C@H](CCCCN)NC(=O)[C@H]([C@@H](C)O)NC1=O [H-2] (H-IKLSP[S5]TKD[S5]LKKVLKGAIKGAIAVAKMV-NH2; staple 6-10) |  | 3.40 ± 0.32 | 3.12 ± 0.52 | 3.20 ± 0.33
69.2 | 168 |  | CC[C@H](C)[C@H](N)C(=O)N[C@@H](CCCCN)C(=O)N[C@@H](CC(C)C)C(=O)N[C@@H](CO)C(=O)N1CCC[C@H]1C(=O)N[C@@H](CCC(=O)O)C(=O)N[C@H](C(=O)N[C@@H](CCCCN)C(=O)N[C@@H](CC(=O)O)C(=O)N[C@@H](CC(N)=O)C(=O)N[C@@H](CC(C)C)C(=O)N[C@@H](CCCCN)C(=O)N[C@@H](CCCCN)C(=O)N[C@H](C(=O)N[C@@H](CC(C)C)C(=O)N[C@@H](CCCCN)C(=O)NCC(=O)N[C@@]1(C)CCCC=CCCC[C@@](C)(C(=O)N[C@H](C(=O)N[C@@H](C)C(=O)N[C@H](C(=O)N[C@@H](C)C(=O)N[C@@H](CCCCN)C(=O)N[C@@H](CCSC)C(=O)N[C@H](C(N)=O)C(C)C)C(C)C)[C@@H](C)CC)NC(=O)CNC(=O)[C@H](CCCCN)NC(=O)[C@H]([C@@H](C)CC)NC1=O)C(C)C)[C@@H](C)O [H-5] (H-IKLSPETKDNLKKVLKG[S5]IKG[S5]IAVAKMV-NH2; staple 18-22) |  | 3.57 ± 0.52 | 5.76 ± 0.32 | 4.70 ± 0.32
73.3 |  | ~49 | CC[C@H](C)[C@H](N)C(=O)N[C@@H](CCCCN)C(=O)N[C@@H](CC(C)C)C(=O)N[C@@H](CO)C(=O)N1CCC[C@H]1C(=O)N[C@@]1(C)CCCC=CCCC[C@@](C)(C(=O)N[C@@H](CC(C)C)C(=O)N[C@@H](CCCCN)C(=O)N[C@@H](CCCCN)C(=O)N[C@H](C(=O)N[C@@H](CC(C)C)C(=O)N[C@@H](CCCCN)C(=O)NCC(=O)N[C@@]2(C)CCCC=CCCC[C@@](C)(C(=O)N[C@H](C(=O)N[C@@H](C)C(=O)N[C@H](C(=O)N[C@@H](C)C(=O)N[C@@H](CCCCN)C(=O)N[C@@H](CCSC)C(=O)N[C@H](C(N)=O)C(C)C)C(C)C)[C@@H](C)CC)NC(=O)CNC(=O)[C@H](CCCCN)NC(=O)[C@H]([C@@H](C)CC)NC2=O)C(C)C)NC(=O)[C@H](CC(=O)O)NC(=O)[C@H](CCCCN)NC(=O)[C@H]([C@@H](C)O)NC1=O [H-10] (H-IKLSP[S5]TKD[S5]LKKVLKG[S5]IKG[S5]IAVAKMV-NH2; staple 6-10, 18-22) |  | 8.78 ± 0.32 | 5.52 ± 0.42 | 10.42 ± 0.25
